{"source": "patent US20230041138A1", "about": "“TREATMENT OF HIS HYPORESPONDERS” (NewAmsterdam Pharma B.V. (Dutch Registration No. 55971946), priority 2021, published 2023)", "key": {"LDL-C": {"system": "LDL-C", "details": "cited from earlier work"}, "[1]": {"assay": "Phase 2 study of obicetrapib as adjunct to high-intensity statin therapy: safety and tolerability (adverse events)", "format": "in vivo, human", "details": "for AEs, total: subjects, number (%): on top of high-intensity statin; for Subjects reporting treatment-emergent adverse events: safety population", "procedure": "Patients were randomly assigned to receive one of the three treatments investigative treatments. All treatments were to be taken once daily with food for 8 weeks. Safety was assessed throughout the trial by monitoring adverse events and concomitant medication use, 12-lead electrocardiograms (ECGs), vital signs, laboratory safety assessments and physical examinations. Additional assessments included salivary cortisol, plasma aldosterone, high-sensitivity C-reactive protein (hsCRP) and endothelin 1.\nSafety and tolerability profiles of obicetrapib assessed by clinical laboratory values and incidence of adverse events (AEs).\n(§1) The primary outcome measure was LDL-C (percent change). Secondary outcome measures included ApoB, Non-HDL-C and HDL-C (percent change). The Intent-to-Treat (ITT) Population included all participants randomized into the study. The Modified ITT (mITT) Population included all participants in the ITT Population who receive at least 1 dose of any study drug and have a baseline value for the LDL-C assessment. The Safety Population included all participants who receive at least 1 dose of any study drug. The mITT Population was the primary population for the efficacy analyses. The primary efficacy analysis of the percent change in LDL-C was performed using a mixed model for repeated measures (MMRM) approach. In order to maintain the overall Type I error rate, the secondary efficacy endpoints were tested sequentially at the 0.05 significance level according to the pre-specified order of hierarchy. All safety endpoints were summarized descriptively. No statistical inference was applied to the safety endpoints. Plasma obicetrapib concentrations were summarized with descriptive statistics based on the […]."}, "[2]": {"assay": "Phase 2 study: PK follow-up, plasma obicetrapib concentrations after end of treatment", "format": "in vivo, human", "procedure": "The screening period for this study took up to 2-weeks. Afterwards patients were randomized to placebo, 5 mg obicetrapib or 10 mg obicetrapib for an 8-week treatment period. After the treatment period, patients continued for a 4-week safety follow-up and a 15-week PK follow-up.\nas §1"}, "[3]": {"details": "either obicetrapib treatment group (5 mg, 10 mg)"}}, "note": "Like-named read-outs stand apart in the source and are kept apart here."}
{"compound": "CCOC(=O)N1c2ccc(C(F)(F)F)cc2[C@@H](N(Cc2cc(C(F)(F)F)cc(C(F)(F)F)c2)c2ncc(OCCCC(=O)O)cn2)C[C@H]1CC", "note": "[Obicetrapib, (2R,4S)-4-{[3,5-bis(trifluoromethyl)benzyl]-[5-(3-carboxypropoxy)pyrimidin-2-yl]amino}-2-ethyl-6-trifluoromethyl-3,4-dihydro-2H-quinoline-1-carboxylic acid ethyl ester]", "values": [{"measurement": "LDL-C reduction", "setting": "LDL-C; 1 mg for 12 weeks, mild dyslipidemia", "result": 27, "unit": "%"}, {"measurement": "LDL-C reduction", "setting": "LDL-C; 2.5 mg for 12 weeks, mild dyslipidemia", "result": 33, "unit": "%"}, {"measurement": "LDL-C reduction", "setting": "LDL-C; 5 mg for 12 weeks, mild dyslipidemia", "result": 45, "unit": "%"}, {"measurement": "LDL-C reduction", "setting": "LDL-C; 10 mg for 12 weeks, mild dyslipidemia", "result": 45, "unit": "%"}, {"measurement": "LDL-C reduction", "setting": "LDL-C; 10 mg obicetrapib plus 10 mg rosuvastatin", "result": 63, "unit": "%"}, {"measurement": "LDL-C reduction", "setting": "LDL-C; 10 mg obicetrapib plus 20 mg atorvastatin", "result": 68, "unit": "%"}, {"measurement": "incremental LDL-C reduction compared with statin monotherapy", "setting": "LDL-C; daily 10 mg with moderate-intensity statins (20 mg atorvastatin or 10 mg rosuvastatin), 12 weeks", "result": "up to 50%"}, {"measurement": "Tolerability and safety profile", "setting": "[1]; 5 mg and 10 mg on top of high intensity statin therapy", "result": "well tolerated with a safety profile similar to placebo"}, {"measurement": "Subjects reporting events considered study drug related", "setting": "[1]; 5 mg group", "result": 2, "unit": "subjects"}, {"measurement": "AEs, related: number of events", "setting": "[1]; 5 mg group (N = 40)", "result": 2, "unit": "events"}, {"measurement": "AEs, related: subjects, number (%)", "setting": "[1]; 5 mg group (N = 40)", "result": "2 (5.0)"}, {"measurement": "AEs, severe", "setting": "[1]; 5 mg group (N = 40)", "result": 0}, {"measurement": "AEs, total: number of events", "setting": "[1]; 5 mg group (N = 40)", "result": 24, "unit": "events"}, {"measurement": "Deaths", "setting": "[1]; 5 mg group (N = 40)", "result": 0}, {"measurement": "SAEs, related", "setting": "[1]; 5 mg group (N = 40)", "result": 0}, {"measurement": "SAEs, total", "setting": "[1]; 5 mg group (N = 40)", "result": 0}, {"measurement": "TEAEs leading to discontinuation of study drug", "setting": "[1]; 5 mg group (N = 40)", "result": 0}, {"measurement": "TESAEs leading to discontinuation of study", "setting": "[1]; 5 mg group (N = 40)", "result": 0}, {"measurement": "AEs, total: subjects, number (%)", "setting": "[1]; 5 mg group (N = 40)", "result": "13 (32.5)"}, {"measurement": "Adverse events: Basal cell carcinoma", "setting": "[1]; 5 mg group (n = 40)", "result": "0 (0.0) n (%)"}, {"measurement": "Adverse events: Fatigue", "setting": "[1]; 5 mg group (n = 40)", "result": "2 (5.0) n (%)"}, {"measurement": "Adverse events: Gastrointestinal disorders", "setting": "[1]; 5 mg group (n = 40)", "result": "3 (7.5) n (%)"}, {"measurement": "Adverse events: General disorders and administration site conditions", "setting": "[1]; 5 mg group (n = 40)", "result": "3 (7.5) n (%)"}, {"measurement": "Adverse events: Hypertension", "setting": "[1]; 5 mg group (n = 40)", "result": "2 (5.0) n (%)"}, {"measurement": "Adverse events: Infections and infestations", "setting": "[1]; 5 mg group (n = 40)", "result": "1 (2.5) n (%)"}, {"measurement": "Adverse events: Injury, poisoning and procedural complications", "setting": "[1]; 5 mg group (n = 40)", "result": "3 (7.5) n (%)"}, {"measurement": "Adverse events: Investigations", "setting": "[1]; 5 mg group (n = 40)", "result": "2 (5.0) n (%)"}, {"measurement": "Adverse events: Metabolism and nutrition disorders", "setting": "[1]; 5 mg group (n = 40)", "result": "2 (5.0) n (%)"}, {"measurement": "Adverse events: Muscle spasms", "setting": "[1]; 5 mg group (n = 40)", "result": "0 (0.0) n (%)"}, {"measurement": "Adverse events: Musculoskeletal and connective tissue disorders", "setting": "[1]; 5 mg group (n = 40)", "result": "4 (10.0) n (%)"}, {"measurement": "Adverse events: Nausea", "setting": "[1]; 5 mg group (n = 40)", "result": "1 (2.5) n (%)"}, {"measurement": "Adverse events: Neoplasms benign, malignant and unspecified (including cysts and polyps)", "setting": "[1]; 5 mg group (n = 40)", "result": "0 (0.0) n (%)"}, {"measurement": "Adverse events: Nervous system disorders", "setting": "[1]; 5 mg group (n = 40)", "result": "2 (5.0) n (%)"}, {"measurement": "Adverse events: Respiratory, thoracic and mediastinal disorders", "setting": "[1]; 5 mg group (n = 40)", "result": "2 (5.0) n (%)"}, {"measurement": "Adverse events: Type 2 diabetes mellitus", "setting": "[1]; 5 mg group (n = 40)", "result": "2 (5.0) n (%)"}, {"measurement": "Adverse events: Vascular disorders", "setting": "[1]; 5 mg group (n = 40)", "result": "2 (5.0) n (%)"}, {"measurement": "Subjects reporting treatment-emergent adverse events", "setting": "[1]; 5 mg group", "result": 15, "unit": "subjects"}, {"measurement": "Subjects reporting events considered study drug related", "setting": "[1]; 10 mg group", "result": 1, "unit": "subject"}, {"measurement": "AEs, related: number of events", "setting": "[1]; 10 mg group (N = 40)", "result": 1, "unit": "events"}, {"measurement": "AEs, related: subjects, number (%)", "setting": "[1]; 10 mg group (N = 40)", "result": "1 (2.5)"}, {"measurement": "AEs, severe", "setting": "[1]; 10 mg group (N = 40)", "result": 0}, {"measurement": "AEs, total: number of events", "setting": "[1]; 10 mg group (N = 40)", "result": 11, "unit": "events"}, {"measurement": "Deaths", "setting": "[1]; 10 mg group (N = 40)", "result": 0}, {"measurement": "SAEs, related", "setting": "[1]; 10 mg group (N = 40)", "result": 0}, {"measurement": "SAEs, total", "setting": "[1]; 10 mg group (N = 40)", "result": 0}, {"measurement": "TEAEs leading to discontinuation of study drug", "setting": "[1]; 10 mg group (N = 40)", "result": 0}, {"measurement": "TESAEs leading to discontinuation of study", "setting": "[1]; 10 mg group (N = 40)", "result": 0}, {"measurement": "AEs, total: subjects, number (%)", "setting": "[1]; 10 mg group (N = 40)", "result": "8 (20.0)"}, {"measurement": "Adverse events: Basal cell carcinoma", "setting": "[1]; 10 mg group (n = 40)", "result": "0 (0.0) n (%)"}, {"measurement": "Adverse events: Fatigue", "setting": "[1]; 10 mg group (n = 40)", "result": "1 (2.5) n (%)"}, {"measurement": "Adverse events: Gastrointestinal disorders", "setting": "[1]; 10 mg group (n = 40)", "result": "0 (0.0) n (%)"}, {"measurement": "Adverse events: General disorders and administration site conditions", "setting": "[1]; 10 mg group (n = 40)", "result": "2 (5.0) n (%)"}, {"measurement": "Adverse events: Hypertension", "setting": "[1]; 10 mg group (n = 40)", "result": "0 (0.0) n (%)"}, {"measurement": "Adverse events: Infections and infestations", "setting": "[1]; 10 mg group (n = 40)", "result": "0 (0.0) n (%)"}, {"measurement": "Adverse events: Injury, poisoning and procedural complications", "setting": "[1]; 10 mg group (n = 40)", "result": "1 (2.5) n (%)"}, {"measurement": "Adverse events: Investigations", "setting": "[1]; 10 mg group (n = 40)", "result": "0 (0.0) n (%)"}, {"measurement": "Adverse events: Metabolism and nutrition disorders", "setting": "[1]; 10 mg group (n = 40)", "result": "0 (0.0) n (%)"}, {"measurement": "Adverse events: Muscle spasms", "setting": "[1]; 10 mg group (n = 40)", "result": "0 (0.0) n (%)"}, {"measurement": "Adverse events: Musculoskeletal and connective tissue disorders", "setting": "[1]; 10 mg group (n = 40)", "result": "4 (10.0) n (%)"}, {"measurement": "Adverse events: Nausea", "setting": "[1]; 10 mg group (n = 40)", "result": "0 (0.0) n (%)"}, {"measurement": "Adverse events: Neoplasms benign, malignant and unspecified (including cysts and polyps)", "setting": "[1]; 10 mg group (n = 40)", "result": "0 (0.0) n (%)"}, {"measurement": "Adverse events: Nervous system disorders", "setting": "[1]; 10 mg group (n = 40)", "result": "2 (5.0) n (%)"}, {"measurement": "Adverse events: Respiratory, thoracic and mediastinal disorders", "setting": "[1]; 10 mg group (n = 40)", "result": "0 (0.0) n (%)"}, {"measurement": "Adverse events: Type 2 diabetes mellitus", "setting": "[1]; 10 mg group (n = 40)", "result": "0 (0.0) n (%)"}, {"measurement": "Adverse events: Vascular disorders", "setting": "[1]; 10 mg group (n = 40)", "result": "0 (0.0) n (%)"}, {"measurement": "Subjects reporting treatment-emergent adverse events", "setting": "[1]; 10 mg group", "result": 8, "unit": "subjects"}, {"measurement": "Laboratory parameters (chemistry, hematology, urinalysis) compared with placebo", "setting": "[1]; [3]", "result": "no clinically meaningful shifts in chemistry, hematology or urinalysis parameters"}, {"measurement": "Vital signs compared with placebo", "setting": "[1]; [3]", "result": "no changes in vital signs"}, {"measurement": "Plasma obicetrapib levels, median decrease after end-of-treatment", "setting": "[2]; 5 mg group, 4 weeks after end-of-treatment", "result": 92, "unit": "%"}, {"measurement": "Plasma obicetrapib levels, median decrease after end-of-treatment", "setting": "[2]; 5 mg group, 8 weeks after end-of-treatment", "result": 98, "unit": "%"}, {"measurement": "Plasma obicetrapib levels, median decrease after end-of-treatment", "setting": "[2]; 5 mg group, 15 weeks after end-of-treatment", "result": 99, "unit": "%"}, {"measurement": "Plasma obicetrapib levels, median decrease after end-of-treatment", "setting": "[2]; 10 mg group, 4 weeks after end-of-treatment", "result": 93, "unit": "%"}, {"measurement": "Plasma obicetrapib levels, median decrease after end-of-treatment", "setting": "[2]; 10 mg group, 8 weeks after end-of-treatment", "result": 98, "unit": "%"}, {"measurement": "Plasma obicetrapib levels, median decrease after end-of-treatment", "setting": "[2]; 10 mg group, 15 weeks after end-of-treatment", "result": 99, "unit": "%"}]}
